Assay results reported in US20090156501A1, “IDENTIFICATION OF LIGANDS BY SELECTIVE AMPLIFICATION OF CELLS TRANSFECTED WITH RECEPTORS” (ACADIA PHARMACEUTICALS, INC., priority 1999, published 2009).
Where two headings read alike, the source gives them in different places.

How the values were obtained:
Type in all cases: cell-based
[1] = biological target: T1, FP prostanoid receptor (Homo sapiens, UniProt P43088); assay: Single Receptor Format amplification assay, prostanoid FP; details: 7-9 doses in duplicate; read-out: Ligand EC50 nM, FP
T1 construct: expressed in transfected cells; host or cells: NIH 3T3
Excerpt: (§1) Receptors belonging to several functional categories have successfully been assayed using the general protocol for the Single Receptor Format described above. […] A diversity of signal transduction classes are also illustrated: G-protein coupled receptors, tyrosine kinase linked receptors, G-proteins and oncogenes. In a few of these cases, focus assays have been used to assay ligand interaction with the illustrated receptors.

[2] = biological target: T2, EP3 prostanoid receptor (Homo sapiens, UniProt P43115); assay: Single Receptor Format amplification assay, prostanoid EP3; details: 7-9 doses in duplicate; read-out: Ligand EC50 nM, EP3
T2 construct: expressed in transfected cells; host or cells: NIH 3T3
T2 sequence (P43115 1-390): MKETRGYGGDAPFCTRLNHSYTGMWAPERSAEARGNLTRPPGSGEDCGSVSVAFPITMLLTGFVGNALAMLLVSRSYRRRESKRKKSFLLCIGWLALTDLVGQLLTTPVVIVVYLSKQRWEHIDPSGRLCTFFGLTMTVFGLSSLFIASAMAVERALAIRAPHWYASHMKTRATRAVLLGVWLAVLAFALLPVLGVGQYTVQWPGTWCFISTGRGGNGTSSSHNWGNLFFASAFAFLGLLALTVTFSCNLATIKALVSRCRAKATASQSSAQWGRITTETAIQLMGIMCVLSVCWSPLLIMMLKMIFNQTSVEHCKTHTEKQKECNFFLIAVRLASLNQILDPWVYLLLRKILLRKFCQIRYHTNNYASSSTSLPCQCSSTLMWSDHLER
Excerpt: as §1

[3] = biological target: T3, m4 muscarinic receptor (Homo sapiens, UniProt P08173); assay: Single Receptor Format amplification assay, β-galactosidase marker, NIH 3T3 cells transfected with m4 and chimeric G-protein; details: for EC50: cotransfected with Gqi5, mean ±SE of 2-4 experiments, read-out: Muscarinic Agonists EC50 [μM], m4
T3 construct: expressed in transfected cells; host or cells: NIH 3T3
T3 sequence (P08173 1-479): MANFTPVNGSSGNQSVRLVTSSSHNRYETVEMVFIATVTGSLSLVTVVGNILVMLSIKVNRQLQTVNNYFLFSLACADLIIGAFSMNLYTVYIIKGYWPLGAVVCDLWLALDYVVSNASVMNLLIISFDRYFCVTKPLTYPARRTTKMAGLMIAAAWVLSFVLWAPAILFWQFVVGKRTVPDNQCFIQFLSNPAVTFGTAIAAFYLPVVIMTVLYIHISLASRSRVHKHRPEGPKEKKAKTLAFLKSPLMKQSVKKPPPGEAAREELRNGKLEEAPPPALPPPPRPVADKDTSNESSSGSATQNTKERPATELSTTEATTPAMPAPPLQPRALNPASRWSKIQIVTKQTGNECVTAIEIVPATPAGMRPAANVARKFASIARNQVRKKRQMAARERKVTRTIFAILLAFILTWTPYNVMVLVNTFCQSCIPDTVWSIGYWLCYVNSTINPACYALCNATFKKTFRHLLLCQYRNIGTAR

[4] = biological target: T4, m2 muscarinic receptor (Homo sapiens, UniProt P08172); assay: Single Receptor Format amplification assay, β-galactosidase marker, NIH 3T3 cells transfected with m2 and Gq-i5
T4 construct: expressed in transfected cells; host or cells: NIH 3T3
T4 sequence (P08172 1-466): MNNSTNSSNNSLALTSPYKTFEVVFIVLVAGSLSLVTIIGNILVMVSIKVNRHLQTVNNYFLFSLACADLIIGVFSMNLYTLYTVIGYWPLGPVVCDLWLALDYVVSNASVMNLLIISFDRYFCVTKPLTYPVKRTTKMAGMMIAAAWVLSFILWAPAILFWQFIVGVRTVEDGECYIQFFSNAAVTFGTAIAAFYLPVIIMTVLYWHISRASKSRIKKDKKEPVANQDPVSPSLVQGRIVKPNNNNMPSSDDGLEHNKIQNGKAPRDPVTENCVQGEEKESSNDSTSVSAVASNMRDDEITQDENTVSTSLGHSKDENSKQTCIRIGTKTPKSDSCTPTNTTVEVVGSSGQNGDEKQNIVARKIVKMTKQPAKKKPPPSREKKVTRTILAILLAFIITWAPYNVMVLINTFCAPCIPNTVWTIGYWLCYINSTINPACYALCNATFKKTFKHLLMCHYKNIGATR

[5] = biological target: T5, m1 muscarinic receptor (Homo sapiens, UniProt P11229); assay: Single Receptor Format amplification assay, β-galactosidase marker, NIH 3T3 cells transfected with m1
T5 construct: expressed in transfected cells; host or cells: NIH 3T3
T5 sequence (P11229 1-460): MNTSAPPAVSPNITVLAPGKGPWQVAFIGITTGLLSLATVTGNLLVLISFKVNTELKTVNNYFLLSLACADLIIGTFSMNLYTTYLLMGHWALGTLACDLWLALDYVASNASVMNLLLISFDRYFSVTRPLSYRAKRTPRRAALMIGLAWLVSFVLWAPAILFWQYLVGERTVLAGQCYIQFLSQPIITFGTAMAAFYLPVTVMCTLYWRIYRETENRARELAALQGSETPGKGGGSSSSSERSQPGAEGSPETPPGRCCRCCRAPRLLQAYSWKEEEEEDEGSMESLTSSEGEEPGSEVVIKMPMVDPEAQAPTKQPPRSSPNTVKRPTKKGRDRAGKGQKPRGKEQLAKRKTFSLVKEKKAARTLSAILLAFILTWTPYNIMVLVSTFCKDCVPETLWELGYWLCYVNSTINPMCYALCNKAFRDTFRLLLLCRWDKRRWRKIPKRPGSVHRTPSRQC

[6] = biological target: T6, m3 muscarinic receptor (Homo sapiens, UniProt P20309); assay: Single Receptor Format amplification assay, β-galactosidase marker, NIH 3T3 cells transfected with m3; details: for EC50: β-gal amplification, mean ±SE of 2-4 experiments, read-out: Muscarinic Agonists EC50 [μM], m3
T6 construct: expressed in transfected cells; host or cells: NIH 3T3

[7] = biological target: T7, m5 muscarinic receptor (Homo sapiens, UniProt P08912); assay: Single Receptor Format amplification assay, β-galactosidase marker, NIH 3T3 cells transfected with m5; details: for Muscarinic Agonists (% Max), m5: maximum response as % of carbachol response (carbachol 5 μM)
T7 construct: expressed in transfected cells; host or cells: NIH 3T3
T7 sequence (P08912 1-532): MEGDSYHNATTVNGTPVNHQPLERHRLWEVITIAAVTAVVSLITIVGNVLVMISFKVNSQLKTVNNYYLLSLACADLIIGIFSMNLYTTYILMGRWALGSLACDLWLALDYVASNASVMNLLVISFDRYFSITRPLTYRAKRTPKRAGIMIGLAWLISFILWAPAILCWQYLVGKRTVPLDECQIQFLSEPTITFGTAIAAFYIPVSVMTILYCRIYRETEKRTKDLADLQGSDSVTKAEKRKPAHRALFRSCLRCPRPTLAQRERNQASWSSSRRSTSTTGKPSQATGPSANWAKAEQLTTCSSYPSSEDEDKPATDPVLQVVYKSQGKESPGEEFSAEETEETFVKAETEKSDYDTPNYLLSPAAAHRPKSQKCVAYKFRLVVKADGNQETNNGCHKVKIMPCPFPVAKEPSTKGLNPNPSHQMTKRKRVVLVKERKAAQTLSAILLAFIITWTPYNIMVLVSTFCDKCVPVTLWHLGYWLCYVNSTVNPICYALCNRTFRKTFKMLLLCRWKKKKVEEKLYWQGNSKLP

[8] = biological target: T8, trk C receptor (Homo sapiens, UniProt Q16288); assay: Single Receptor Format amplification assay, trk C
T8 construct: expressed in transfected cells; host or cells: NIH 3T3
Excerpt: Also illustrated is the dose-response relationships of the related neutrotrophic factor NT3.
as §1

[9] = biological target: T9, trk A receptor (Homo sapiens, UniProt P04629); assay: Single Receptor Format amplification assay, trk A; details: 7-9 doses in duplicate
T9 construct: expressed in transfected cells; host or cells: NIH 3T3

[10] = maximum response as % of carbachol response (carbachol 10 μM), Gqi5

T6 sequence (P20309 whole entry): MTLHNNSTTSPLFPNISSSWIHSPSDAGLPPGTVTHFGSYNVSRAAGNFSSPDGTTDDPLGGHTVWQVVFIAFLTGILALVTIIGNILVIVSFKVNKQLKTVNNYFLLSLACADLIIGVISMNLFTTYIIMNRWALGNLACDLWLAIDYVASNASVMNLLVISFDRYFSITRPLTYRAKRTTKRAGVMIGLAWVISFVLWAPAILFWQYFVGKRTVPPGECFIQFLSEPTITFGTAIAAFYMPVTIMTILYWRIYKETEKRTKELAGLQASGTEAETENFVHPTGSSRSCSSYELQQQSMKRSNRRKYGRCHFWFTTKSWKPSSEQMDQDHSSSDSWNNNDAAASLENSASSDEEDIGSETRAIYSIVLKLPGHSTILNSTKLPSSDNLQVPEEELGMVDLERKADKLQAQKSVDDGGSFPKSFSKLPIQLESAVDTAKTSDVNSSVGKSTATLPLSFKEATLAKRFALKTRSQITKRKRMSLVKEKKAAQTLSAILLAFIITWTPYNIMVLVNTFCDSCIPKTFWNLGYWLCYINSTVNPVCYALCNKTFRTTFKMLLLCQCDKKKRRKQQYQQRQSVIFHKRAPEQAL
T1 sequence (P43088 whole entry): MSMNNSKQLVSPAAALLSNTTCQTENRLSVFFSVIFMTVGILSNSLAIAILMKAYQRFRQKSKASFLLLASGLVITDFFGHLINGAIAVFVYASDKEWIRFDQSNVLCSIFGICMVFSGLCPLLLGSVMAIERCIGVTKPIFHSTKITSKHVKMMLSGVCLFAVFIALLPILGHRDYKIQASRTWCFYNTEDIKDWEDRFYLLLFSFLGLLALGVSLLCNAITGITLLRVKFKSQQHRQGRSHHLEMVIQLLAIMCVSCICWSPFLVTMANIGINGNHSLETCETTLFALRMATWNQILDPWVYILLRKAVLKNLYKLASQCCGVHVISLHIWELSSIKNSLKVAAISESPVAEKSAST
T9 sequence (P04629 33-790 isoform P04629-2 limits assumed): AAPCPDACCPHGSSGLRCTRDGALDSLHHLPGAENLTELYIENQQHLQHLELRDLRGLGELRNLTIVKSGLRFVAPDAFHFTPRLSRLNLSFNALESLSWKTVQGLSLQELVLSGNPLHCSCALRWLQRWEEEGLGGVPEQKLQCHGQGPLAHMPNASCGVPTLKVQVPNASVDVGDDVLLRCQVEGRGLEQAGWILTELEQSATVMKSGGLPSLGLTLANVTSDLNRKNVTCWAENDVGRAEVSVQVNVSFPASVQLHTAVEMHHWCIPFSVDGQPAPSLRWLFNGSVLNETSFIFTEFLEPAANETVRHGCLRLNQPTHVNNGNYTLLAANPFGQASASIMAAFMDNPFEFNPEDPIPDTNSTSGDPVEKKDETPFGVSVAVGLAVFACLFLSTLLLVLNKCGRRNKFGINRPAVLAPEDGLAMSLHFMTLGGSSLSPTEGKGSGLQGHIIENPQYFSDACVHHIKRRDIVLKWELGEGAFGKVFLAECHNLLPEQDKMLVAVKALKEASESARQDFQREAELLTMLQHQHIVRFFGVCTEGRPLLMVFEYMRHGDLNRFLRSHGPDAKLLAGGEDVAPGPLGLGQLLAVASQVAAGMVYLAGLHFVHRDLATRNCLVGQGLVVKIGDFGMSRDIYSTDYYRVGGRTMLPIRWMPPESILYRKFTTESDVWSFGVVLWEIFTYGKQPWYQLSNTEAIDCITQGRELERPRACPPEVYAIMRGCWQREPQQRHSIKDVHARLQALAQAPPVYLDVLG

O=C(O)CCC/C=C\C[C@@H]1[C@@H](/C=C/[C@@H](O)COc2cccc(C(F)(F)F)c2)[C@H](O)C[C@@H]1O (racemic) [Fluprostenol]
EC50 [1]: 2 ± 1 nM

O=C(O)CCCCCC[C@H]1C(=O)CC[C@@H]1/C=C/[C@@H](O)COc1ccccc1 [MB28767]
EC50 [2]: 270 ± 190 nM

C[N+](C)(C)CC#CCOC(=O)Nc1cccc(Cl)c1.[Cl-] [McN A-434]
EC50 [3]: 0.12 ± 0.02 µM | Muscarinic Agonists (% Max), m4 [3, 10]: (84 ± 3) % | EC50 ([4]; cotransfected with Gqi5, mean ±SE of 2-4 experiments, read-out: Muscarinic Agonists EC50 [μM], m2): 1.5 ± 0.6 µM | Muscarinic Agonists (% Max), m2 [4, 10]: (108 ± 7) % | Muscarinic Agonists (% Max), m1 ([5]; maximum response as % of carbachol response (carbachol 200 μM)): (43 ± 2) % | EC50 ([5]; β-gal amplification, mean ±SE of 2-4 experiments, read-out: Muscarinic Agonists EC50 [μM], m1): 1.1 ± 0.2 µM | Muscarinic Agonists (% Max), m3 ([6]; maximum response as % of carbachol response (carbachol 100 μM)): (38 ± 2) % | EC50 [6]: 2.2 µM | Muscarinic Agonists (% Max), m5 [7]: (57 ± 4) % | EC50 ([7]; β-gal amplification, mean ±SE of 2-4 experiments, read-out: Muscarinic Agonists EC50 [μM], m5): 1 ± 0.3 µM

C[N+](C)(C)CCOC(N)=O [carbachol]
Muscarinic Agonists (% Max), m4 [3, 10]: (100) % | Muscarinic Agonists (% Max), m2 [4, 10]: (100) % | Muscarinic Agonists (% Max), m5 [7]: (100) %

C[C@@H]1O[C@H](C[N+](C)(C)C)C[C@H]1O [muscarine]
Muscarinic Agonists (% Max), m4 [3]: (69 ± 2) % | EC50 [3]: 0.32 ± 0.15 µM | Muscarinic Agonists (% Max), m2 [4]: (76 ± 1) % | Muscarinic Agonists (% Max), m1 [5]: (84 ± 4) % | Muscarinic Agonists (% Max), m3 [6]: (84 ± 6) % | EC50 [6]: 0.56 ± 0.25 µM | EC50 [7]: 0.39 ± 0.18 µM | Muscarinic Agonists (% Max), m5 [7]: (86 ± 0) %

O=C1CCCN1CC#CCN1CCCC1 [oxotremorine]
Muscarinic Agonists (% Max), m4 [3]: (102 ± 3) % | Muscarinic Agonists (% Max), m2 [4]: (100 ± 5) % | Muscarinic Agonists (% Max), m1 [5]: (75 ± 10) % | Muscarinic Agonists (% Max), m3 [6]: (66 ± 5) % | Muscarinic Agonists (% Max), m5 [7]: (74 ± 2) %

NGF: Nerve growth factor (NGF) is an agonist for the trk A receptor
amplification response in cells transfected with trk C ([8]; data not shown): not able to induce amplification responses

NT3: related neutrotrophic factor NT3
Ligand EC50, trk C ([8]; 7-9 doses in duplicate): 0.0024 ± 0.0011 µg/mL | Ligand EC50, trk A [9]: >1 µg/mL
